# Measured values published in ChEMBL document CHEMBL5360635 (J Med Chem, 2023).
# Active and inactive are the calls of the source. The rule behind the calls is not given here.
# Legend:
# [1] = biological target: Bifunctional peptidase and arginyl-hydroxylase JMJD5 (Homo sapiens, UniProt Q8N371); assay: Inhibition of N-terminal his6-tagged-thioredoxin-tagged human recombinant JMJD5 expressed in Escherichia coli using RPS6 as substrate by SPE-MS analysis
# [2] = biological target: T1, Lysine-specific demethylase 4E (Homo sapiens, UniProt B2RXH2); assay: Inhibition of KDM4E (unknown origin) by FDH-coupled spectrophotometric turnover assay
# T1 sequence (B2RXH2 whole entry): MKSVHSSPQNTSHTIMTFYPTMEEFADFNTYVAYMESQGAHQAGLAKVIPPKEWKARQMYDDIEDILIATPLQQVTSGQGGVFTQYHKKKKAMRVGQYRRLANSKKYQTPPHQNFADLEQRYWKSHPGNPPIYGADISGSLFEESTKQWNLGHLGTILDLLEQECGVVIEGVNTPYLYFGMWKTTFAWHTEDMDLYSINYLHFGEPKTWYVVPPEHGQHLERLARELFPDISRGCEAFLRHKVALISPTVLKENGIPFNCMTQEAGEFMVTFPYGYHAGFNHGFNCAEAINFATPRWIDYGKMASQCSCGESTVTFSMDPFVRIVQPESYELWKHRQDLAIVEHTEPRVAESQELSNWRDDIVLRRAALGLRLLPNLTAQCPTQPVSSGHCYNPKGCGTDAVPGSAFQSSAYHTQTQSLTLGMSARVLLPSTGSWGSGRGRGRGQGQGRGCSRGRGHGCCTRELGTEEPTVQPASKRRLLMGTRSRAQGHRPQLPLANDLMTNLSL
# [3] = Inhibition of N-terminal his6-tagged FIH (unknown origin) expressed in Escherichia coli using HIF-alpha CAD (788 to 822 residues) expressed in Escherichia coli by SPE-MS analysis; design: species or system Homo sapiens
# [4] = biological target: T1, Lysine-specific demethylase 4E; assay: Inhibition of KDM4E (unknown origin) by SPE-MS analysis
# [5] = test system: A549; assay: Induction of cell cycle arrest in human A549 cells assessed as accumulation at G1 phase incubated for 24 hrs by PI staining based flow cytometry; type: functional
# [6] = test system: A549; assay: Induction of cell cycle arrest in human A549 cells assessed as accumulation at sub G1 phase incubated for 24 hrs by PI staining based flow cytometry; type: functional
# [7] = test system: A549; assay: Induction of replication stress in human A549 cells increase in micronuclei at 1 uM by DAPI staining based fluorescent microscopic analysis; type: functional, cell-based
# [8] = test system: A549; assay: Induction of replication stress in human A549 cells increase in 53BP1 bodies at 1 uM by DAPI staining based fluorescent microscopic analysis; type: functional, cell-based
# Chain of Bifunctional peptidase and arginyl-hydroxylase JMJD5 (Q8N371 whole entry): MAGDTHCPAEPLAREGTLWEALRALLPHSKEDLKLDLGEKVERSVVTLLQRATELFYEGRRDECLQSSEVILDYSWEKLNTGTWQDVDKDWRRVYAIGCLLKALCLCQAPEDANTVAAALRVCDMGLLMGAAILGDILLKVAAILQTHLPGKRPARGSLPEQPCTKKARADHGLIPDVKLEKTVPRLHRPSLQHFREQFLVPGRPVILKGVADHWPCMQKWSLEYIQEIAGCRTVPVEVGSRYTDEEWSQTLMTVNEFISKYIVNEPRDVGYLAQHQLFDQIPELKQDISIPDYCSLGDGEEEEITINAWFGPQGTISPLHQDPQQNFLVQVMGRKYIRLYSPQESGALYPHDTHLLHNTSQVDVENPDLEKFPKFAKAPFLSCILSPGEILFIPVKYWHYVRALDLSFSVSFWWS
structure (smiles),measurement,setting,value
COc1ccccc1CNc1cnc(C(=O)O)cc1C(=O)O,IC50,[1],0.7 µM
O=C(O)c1ccnc(C(=O)O)c1Nc1ccccc1[N+](=O)[O-],IC50,[2],56 µM
O=C(O)c1cc(C(=O)O)c(NCc2ccccc2C2CC2)cn1,IC50,[3],> 50 µM
O=C(O)c1cc(C(=O)O)c(C(F)(F)F)cn1,IC50,[4],Not Active
COC(=O)c1cc(C(=O)OC)c(NCc2ccccc2OC)cn1,Activity,[5],Active
same,Activity,[6],Active
same,Activity,[7],Active
same,Activity,[8],Active
COC(=O)c1cc(C(=O)OC)c(NCc2ccccc2C2CC2)cn1,Activity,[5],Active
same,Activity,[6],Active
same,Activity,[7],Active
same,Activity,[8],Active
O=C(O)c1ccnc(C(=O)O)c1C(F)(F)F,IC50,[4],Not Active
